Each molecule was assayed against Gastrin/cholecystokinin type B receptor (Cavia porcellus) (assay: The compound was tested for the inhibition of [125I]-Bolton-Hunter CCK-8 binding to cholecystokinin type B receptor in guinea pig cerebral cortical).

SMILES | IC50
CCCCCN(CCCCC)C(=O)[C@@H](Cc1c[nH]c2ccccc12)NC(=O)c1ccc2cccc(O)c2n1 | > 10 µM
CN(Cc1ccccc1)C(=O)[C@@H](Cc1c[nH]c2ccccc12)NC(=O)c1cnc2ccccc2c1 | 10 µM
CCCCCN(CCCCC)C(=O)[C@H](Cc1c[nH]c2ccccc12)NC(=O)c1ccc(Cl)c(Cl)c1 | > 10 µM
CCCCCN(CCCCC)C(=O)[C@@H](Cc1c[nH]c2ccccc12)NC(=O)c1ccc(Cl)c(Cl)c1 | > 10 µM
CCCCCN(CCCCC)C(=O)[C@@H](Cc1c[nH]c2ccccc12)NC(=O)c1c[nH]c2ccccc12 | 20 µM
CCCCCN(CCCCC)C(=O)[C@@H](Cc1c[nH]c2ccccc12)NC(=O)c1cccc2ccccc12 | 9.7 µM
CCCCCN(CCCCC)C(=O)[C@@H](CC1C(=O)Nc2ccccc21)NC(=O)c1cnc2ccccc2c1 (some centres not stated) | 4.1 µM
CCCCCN(CCCCC)C(=O)[C@@H](Cc1c[nH]c2ccccc12)NC(=O)c1ccc2ccccc2c1 | 11 µM
C[C@H](NC(=O)[C@@H](Cc1c[nH]c2ccccc12)NC(=O)c1cnc2ccccc2c1)c1ccccc1 | > 10 µM
CCOC(=O)CN(Cc1ccccc1)C(=O)[C@@H](Cc1c[nH]c2ccccc12)NC(=O)c1cnc2ccccc2c1 | 9.2 µM

These molecules were tested against Gastrin/cholecystokinin type B receptor (Cavia porcellus) (assay: The compound was tested for the inhibition of [125I]-Bolton-Hunter CCK-8 binding to cholecystokinin type B receptor in guinea pig cerebral cortical; Not determined).

SMILES | IC50
CCCCCN(CCCCC)C(=O)[C@@H](Cc1c(Sc2ccccc2[N+](=O)[O-])[nH]c2ccccc12)NC(=O)c1cnc2ccccc2c1 | > 10 µM
CCCCCN(CCCCC)C(=O)[C@@H](Cc1c[nH]c2ccccc12)NC(=O)/C=C/c1cccnc1 | > 10 µM
